Measurements taken from PMC11474975, “Enzyme Dynamics Determine the Potency and Selectivity of Inhibitors Targeting Disease-Transmitting Mosquitoes” (ACS Infectious Diseases, 2024).
Like-named read-outs stand apart in the source and are kept apart here.

Tests used:
[1] = molecular target: T1, mAChE (Mus musculus, UniProt P21836); assay: mAChE inhibition, IC50 (Ellman assay); settings: for S.R. (selectivity ratio) mAChE vs AgAChE1: IC50 mAChE / IC50 AgAChE1; for mAChE inhibitor class (Strong/Weak): class from experimental IC50
T1 sequence (P21836 32-614): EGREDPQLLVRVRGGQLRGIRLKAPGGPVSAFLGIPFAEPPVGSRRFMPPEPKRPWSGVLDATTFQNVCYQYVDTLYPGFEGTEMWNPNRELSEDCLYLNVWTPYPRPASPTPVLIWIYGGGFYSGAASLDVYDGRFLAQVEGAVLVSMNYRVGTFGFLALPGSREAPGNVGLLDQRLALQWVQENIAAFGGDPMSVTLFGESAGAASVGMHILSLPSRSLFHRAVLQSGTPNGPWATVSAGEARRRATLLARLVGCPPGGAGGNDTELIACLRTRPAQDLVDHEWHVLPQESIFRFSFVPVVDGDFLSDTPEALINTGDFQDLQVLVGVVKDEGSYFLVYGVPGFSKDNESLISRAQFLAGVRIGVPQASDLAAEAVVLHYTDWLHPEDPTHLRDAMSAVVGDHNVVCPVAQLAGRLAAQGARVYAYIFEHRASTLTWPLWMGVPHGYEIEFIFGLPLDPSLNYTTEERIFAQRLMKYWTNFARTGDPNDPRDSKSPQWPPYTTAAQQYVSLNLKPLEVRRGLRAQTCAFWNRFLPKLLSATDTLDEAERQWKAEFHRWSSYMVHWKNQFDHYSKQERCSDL
Protocol: Dilution series of eight concentrations were prepared (0.001–1000 and 0.1–1000 μM, respectively). Enzymatic activity was measured using the Ellman assay (adapted to a 96-well format) with secreted nonpurified protein in growth medium. A QIAgility robotic benchtop instrument (Qiagen) was used for automatic liquid handling when setting up assay plates. The assay was then performed at 30 °C in a final volume of 200 mL 0.1 M phosphate buffer (pH 7.4) containing 0.2 mM 5,5′-thiobis(2-nitrobenzoic acid) and 1 mM acetylcholine iodide. Changes in the wells’ absorbance at 412 nm were recorded over 60 s using a FlexStation 3 Multi-Mode Microplate Reader (Molecular Devices) to monitor the enzymatic reaction. Eight positive controls of uninhibited enzyme were assumed to represent 100% activity and used to determine the average slope. […] Nonlinear regression (curve fitting) in GraphPad Prism[54] was used to calculate IC50 values. The log[inhibitor] vs response variable slope equation was fitted using three parameters. Three independent replicates were used for the IC50 determination.

[2] = tested on: AChE1 from Anopheles gambiae (AgAChE1); assay: AgAChE1 inhibition, IC50 (Ellman assay); type: biochemical; settings: class from experimental IC50
[3] = molecular target: T1, mAChE; design: made in house; method as in PMID 30339371, PMID 27598521, PMID 22140425; settings: taken from previous publications; cited from earlier work
[4] = tested on: hAChE; assay: hAChE inhibition, IC50; type: biochemical, Homo sapiens
[5] = tested on: AChE1 from Anopheles gambiae (AgAChE1); settings: taken from previous publications; cited from earlier work
[6] = tested on: hAChE; settings: taken from previous publications; cited from earlier work

CCN1CCN(C2CCN(C(=O)COc3ccc(-c4ccc(OC)cc4)cc3)CC2)CC1 [AL284]
S.R. (selectivity ratio) mAChE vs AgAChE1 [1]: 73 | mAChE inhibitor class (Strong/Weak) [1]: Weak (strong and weak inhibitors of AgAChE1 from both classes (IC50 < 1 μM and IC50 > 5 μM, respectively) | AgAChE1 inhibitor class (Strong/Weak) [2]: Strong (strong and weak inhibitors of AgAChE1 from both classes (IC50 < 1 μM and IC50 > 5 μM, respectively) | IC50 [3]: 29 µM | S.R. (selectivity ratio) hAChE vs AgAChE1 [4]: 45 | IC50 [5]: 0.4 µM | IC50 [6]: 18 µM

COc1ccccc1NC(=S)NCCN(C)C [AL237]
IC50 [1]: 217 µM | S.R. (selectivity ratio) mAChE vs AgAChE1 [1]: 31 | mAChE inhibitor class (Strong/Weak) [1]: Weak (strong and weak inhibitors of AgAChE1 from both classes (IC50 < 1 μM and IC50 > 5 μM, respectively) | AgAChE1 inhibitor class (Strong/Weak) [2]: Weak (strong and weak inhibitors of AgAChE1 from both classes (IC50 < 1 μM and IC50 > 5 μM, respectively) | S.R. (selectivity ratio) hAChE vs AgAChE1 [4]: 17 | IC50 [5]: 7.1 µM | IC50 [6]: 120 µM

COc1ccc(NC(=S)NCCN2CCC(C)CC2)cc1Cl [AL201]
IC50 [1]: 26 µM | S.R. (selectivity ratio) mAChE vs AgAChE1 [1]: 27 | mAChE inhibitor class (Strong/Weak) [1]: Weak (strong and weak inhibitors of AgAChE1 from both classes (IC50 < 1 μM and IC50 > 5 μM, respectively) | AgAChE1 inhibitor class (Strong/Weak) [2]: Strong (strong and weak inhibitors of AgAChE1 from both classes (IC50 < 1 μM and IC50 > 5 μM, respectively) | S.R. (selectivity ratio) hAChE vs AgAChE1 [4]: 13 | IC50 [5]: 0.96 µM | IC50 [6]: 12 µM

O=C(COc1ccc(-c2ccccc2)cc1)NCCCN1CCCCC1 [AL264]
S.R. (selectivity ratio) mAChE vs AgAChE1 [1]: 6 | mAChE inhibitor class (Strong/Weak) [1]: Weak (strong and weak inhibitors of AgAChE1 from both classes (IC50 < 1 μM and IC50 > 5 μM, respectively) | AgAChE1 inhibitor class (Strong/Weak) [2]: Weak (strong and weak inhibitors of AgAChE1 from both classes (IC50 < 1 μM and IC50 > 5 μM, respectively) | IC50 [3]: 61 µM | S.R. (selectivity ratio) hAChE vs AgAChE1 [4]: 6 | IC50 [5]: 10 µM | IC50 [6]: 57 µM

O=C(COc1ccc(Cl)cc1Cl)Nc1ccc(CN2CCCCC2)cc1 [AL137]
AgAChE1 inhibitor class (Strong/Weak) [2]: Strong (strong and weak inhibitors of AgAChE1 from both classes (IC50 < 1 μM and IC50 > 5 μM, respectively) | IC50 [5]: 0.26 µM
